Results taken from patent US8673980B2, “Closthioamides, compositions, and methods for treating bacterial or fungal infections or cancer” (Leibniz-Institut fuer Naturstoff-Forschung und …, priority 2009, dated 2014).
Converted amounts (≈) assume the structure as drawn.

Legend:
Assay type in all cases: cell-based
E. coli = assay: Standardized antimicrobial assay (agar diffusion test)
Protocol: (§1) For the detailed evaluation of their antimicrobial (antibacterial, antifungal) activity, dosthioamides according to the invention were subjected to standardized antimicrobial assays (Herold et al., Chem. Eur. J., 2005), e.g. agar diffusion test. In particular, closthioamide 1 was tested for its inhibitory effect on cell growth of different bacterial strains and/or fungi. The tested microbes included Bacillus subtilis, Staphylococcus aureus, E. coli, Pseudomonas aeruginosa, Staphylococcus aureus MRSA, Enterococcus faecalis VRE, Mycobacterium vaccae, Sporobolomyces salmonicolor, Candida albicans, and Penicillium notatum.

Bacillus subtilis = assay: as above
Protocol: as §1

[1] = system: Sporobolomyces salmonicolor; assay: as above
Protocol: as §1

Pseudomonas aeruginosa = assay: as above
Protocol: as §1

Staphylococcus aureus = assay: as above
Protocol: as §1

Penicillium notatum = assay: as above
Protocol: as §1

Candida albicans = assay: as above
Protocol: as §1

Mycobacterium vaccae = assay: as above
Protocol: as §1

K-562 = assay: Antiproliferative activity on K-562 cells; conditions: K562; K-562 human erythromyeloblastoid leukemia cells
Protocol: (§2) For the detailed evaluation of its biological profile as anti-cancer agent, cultured human tumor cell lines were treated with the closthioamide 1. In particular, closthioamide 1 was tested for its inhibitory effect on cell growth of different human cell lines.

HUVEC = assay: Antiproliferative activity on HUVEC cells; conditions: HUVEC human umbilical vein endothelial cells
Protocol: as §2

[2] = system: E. coli, Mycobacterium vaccae, MRSA, VRE; assay: Activity of synthetic closthioamide using 4 bacterial test strains (FIG. 4A)
Description: (§3) FIG. 4. A Activity of synthetic closthioamide (1) using 4 bacterial test strains; from left to right: (1) E. coli, (2) Mycobacterium vaccae, (3) methicillin-resistant Staphylococcus aureus (MRSA), (4) vancomycin-resistant Enterococcus faecalis (VRE). B Ciprofloxacin control.

[3] = system: Staphylococcus aureus MRSA; assay: Standardized antimicrobial assay (agar diffusion test)
Description: as §3, §1

[4] = system: Enterococcus faecalis VRE; assay: as above; conditions: for antibacterial activity: vancomycin-resistant Enterococcus faecalis
Description: as §3, §1

HeLa = assay: Cytotoxicity on HeLa cells; conditions: HeLa human epithelial cervical cancer
Protocol: The major metabolite (1) was isolated from a 5 L culture and purified by sequential open column chromatography and RP-HPLC (FIG. 1), yielding 1.04 mg of a pale yellow compound. […] According to HR-MS measurements, 1 has a molecular formula of C29H38N6O2S6 and appeared to be amazingly rich in sulfur atoms. Furthermore, NMR data disclosed that the molecule is symmetrical: The ^13C NMR and DEPT spectra indicated the presence of six methylene, two methine, and five quaternary carbons. In the ^1H NMR spectrum signals corresponding to two olefinic and six methylene protons were observed (see Table 1).
as §2

[5] = Cytotoxicity (data not shown)

Question: Which results are given for Oc1ccc(C(=S)NCCC(=S)NCCC(=S)NCCCNC(=S)CCNC(=S)CCNC(=S)c2ccc(O)cc2)cc1 [closthioamide 1, closthioamide]?
Answer: antimicrobial activity (E. coli): showed activity; antimicrobial activity (Bacillus subtilis): showed activity; antimicrobial activity [1]: showed activity; antimicrobial activity (Pseudomonas aeruginosa): showed activity; antimicrobial activity (Staphylococcus aureus): showed activity; antimicrobial activity (Penicillium notatum): showed activity; antimicrobial activity (Candida albicans): showed activity; antimicrobial activity (Mycobacterium vaccae): showed activity; GI50 (K-562): 1.5 µg/mL (≈ 2.16 µM); GI50 (HUVEC): 6.4 µg/mL (≈ 9.21 µM); activity of synthetic compound compared with the bacterial metabolite [2]: equivalent to the activity of the bacterial metabolite; antibacterial activity ([3]; FIG. 4, synthetic closthioamide, methicillin-resistant Staphylococcus aureus): highly active; antimicrobial activity ([3]; Staphylococcus aureus MRSA): showed activity; antibacterial activity ([3]; preliminary bioactivity profiling, isolated metabolite, methicillin-resistant Staphylococcus aureus (MRSA)): antibacterial activity; antimicrobial activity ([4]; Enterococcus faecalis VRE): showed activity; antibacterial activity ([4]; FIG. 4, synthetic closthioamide): highly active; antibacterial activity ([4]; preliminary bioactivity profiling, isolated metabolite): antibacterial activity; CC50 (HeLa): 5.1 µg/mL (≈ 7.34 µM); cytotoxicity [5]: only moderate cytotoxicity
